Our source for the Ki values is patent US9260425B2 (Genetech, Inc., priority 2011, dated 2016).

Chain of Pim-1 (P11309 whole entry): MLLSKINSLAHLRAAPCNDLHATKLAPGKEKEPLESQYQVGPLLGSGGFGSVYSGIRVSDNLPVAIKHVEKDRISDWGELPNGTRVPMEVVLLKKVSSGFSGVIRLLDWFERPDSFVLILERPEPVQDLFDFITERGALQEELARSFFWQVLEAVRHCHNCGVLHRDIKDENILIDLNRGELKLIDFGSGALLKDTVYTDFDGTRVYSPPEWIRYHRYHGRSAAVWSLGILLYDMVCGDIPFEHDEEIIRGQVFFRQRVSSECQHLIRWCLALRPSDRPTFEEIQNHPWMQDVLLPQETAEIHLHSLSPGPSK

This experiment addresses Pim-1 (Homo sapiens (Human), UniProt P11309). The experiment is described as follows: Pim kinase binding activity assay (Example 901), PIM-1 enzyme, Caliper microfluidic peptide phosphorylation. To be noted: 20 pM PIM-1, 10 μM ATP, 1 μM FAM-peptide, 90 minutes at room temperature. Format: biochemical. An outline of the steps: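 PIM-1 at 20 pM phosphorylated 1 μM FAM-labelled Pim peptide with 10 μM ATP in HEPES pH 7.2, MgCl2, Tween 20 and DTT for 90 min at room temperature. EDTA stopped the reaction, and product and substrate were resolved by microfluidic electrophoresis (ex 488/em 530 nm). Ki was derived from substrate conversion.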
`Cc1ccc(-c2n[nH]c3cnc(-c4cnn(C)c4)cc23)nc1N1C[C@@H](N)C[C@@H](F)C1` [Example 509, (3S,5R)-5-fluoro-1-(3-methyl-6-(5-(1-methyl-1H-pyrazol-4-yl)-1H-pyrazolo[3,4-c]pyridin-3-yl)pyridin-2-yl)piperidin-3-amine] had an inhibitory constant (Ki) of 0.056 nM.
The result for `CCn1cc(-c2cc3c(-c4cccc(N5CCNC[C@H](O)C5)n4)n[nH]c3cn2)cn1` [Example 410, (S)-1-(6-(5-(1-ethyl-1H-pyrazol-4-yl)-1H-pyrazolo[3,4-c]pyridin-3-yl)pyridin-2-yl)-1,4-diazepan-6-ol] reads 0.039 nM; that for `CCn1cc(-c2cc3c(-c4cc(C(C)C)ccn4)n[nH]c3cn2)cn1` [Example 507, 5-(1-ethyl-1H-pyrazol-4-yl)-3-(4-isopropylpyridin-2-yl)-1H-pyrazolo[3,4-c]pyridine], 29.8 nM.
For `CN1C(=O)CN(c2cc3c(-c4ccccc4)n[nH]c3cn2)C1=O` [Example 355, 3-methyl-1-(3-phenyl-1H-pyrazolo[3,4-c]pyridin-5-yl)imidazolidine-2,4-dione] the value was 809 nM; for `CCn1cc(-c2cc3c(-c4cccc(N5CCCCC(O)C5)n4)n[nH]c3cn2)cn1` (stereo not shown) [Example 494, 1-(6-(5-(1-ethyl-1H-pyrazol-4-yl)-1H-pyrazolo[3,4-c]pyridin-3-yl)pyridin-2-yl)azepan-3-ol], 0.122 nM; for `CN1C(=O)CN(c2cc3c(-c4cccc(N5CCNCC5)n4)n[nH]c3cn2)C1=O` [Example 371, 3-methyl-1-(3-(6-(piperazin-1-yl)pyridin-2-yl)-1H-pyrazolo[3,4-c]pyridin-5-yl)imidazolidine-2,4-dione], 31.1 nM.
The result for `FCCn1cc(-c2cc3c(-c4cccc(N5CCNCC5)n4)n[nH]c3cn2)cn1` [Example 391, 5-(1-(2-fluoroethyl)-1H-pyrazol-4-yl)-3-(6-(piperazin-1-yl)pyridin-2-yl)-1H-pyrazolo[3,4-c]pyridine] reads 0.108 nM; that for `Cc1ccc(-c2n[nH]c3cnc(-c4cccnc4)cc23)nc1N1CCC[C@@H](N)C1` [Example 310, (R)-1-(3-methyl-6-(5-(pyridin-3-yl)-1H-pyrazolo[3,4-c]pyridin-3-yl)pyridin-2-yl)piperidin-3-amine], 0.137 nM; that for `N#CCc1n[nH]c2cnc(-c3cccnc3)cc12` [Example 134, 2-(5-(pyridin-3-yl)-1H-pyrazolo[3,4-c]pyridin-3-yl)acetonitrile], 826 nM.
Molecule `O=C1CCCCN1c1n[nH]c2cnc(-c3cccnc3)cc12` [Example 260, 1-(5-(pyridin-3-yl)-1H-pyrazolo[3,4-c]pyridin-3-yl)piperidin-2-one] came in with an inhibition constant (Ki) of 1100 nM.
The result for `CCn1cc(-c2cc3c(-c4cccc(N5CCNC(C(F)(F)F)C5)n4)n[nH]c3cn2)cn1` (stereo not shown) [Example 468, 5-(1-ethyl-1H-pyrazol-4-yl)-3-(6-(3-(trifluoromethyl)piperazin-1-yl)pyridin-2-yl)-1H-pyrazolo[3,4-c]pyridine] reads 0.06 nM; that for `CCn1cc(-c2cc3c(-c4ccc(Br)c(N5C[C@@H](N)C[C@@H](F)C5)n4)n[nH]c3cn2)cn1` [Example 454, (3S,5R)-1-(3-bromo-6-(5-(1-ethyl-1H-pyrazol-4-yl)-1H-pyrazolo[3,4-c]pyridin-3-yl)pyridin-2-yl)-5-fluoropiperidin-3-amine], 0.026 nM.
`CCn1cc(-c2cc3c(-c4cc(C)cc(N5CCCNCC5)n4)n[nH]c3cn2)cn1` [Example 457, 3-(6-(1,4-diazepan-1-yl)-4-methylpyridin-2-yl)-5-(1-ethyl-1H-pyrazol-4-yl)-1H-pyrazolo[3,4-c]pyridine] had a Ki of 0.049 nM.
The result for `N[C@H]1CCCN(c2nc(-c3n[nH]c4cnc(-c5cccnc5)cc34)ccc2C2CC2)C1` [Example 485, (S)-1-(3-cyclopropyl-6-(5-(pyridin-3-yl)-1H-pyrazolo[3,4-c]pyridin-3-yl)pyridin-2-yl)piperidin-3-amine] reads 0.022 nM; that for `Cn1cc(-c2cc3c(CC#N)n[nH]c3cn2)cn1` [Example 135, 2-(5-(1-methyl-1H-pyrazol-4-yl)1H-pyrazolo[3,4-c]pyridin-3-yl)acetonitrile], 387 nM; that for `Fc1ccccc1-c1n[nH]c2cnc(-c3cncc(NC4CCNCC4)c3)cc12` [Example 171, 5-(3-(2-fluorophenyl)-1H-pyrazolo[3,4-c]pyridin-5-yl)-N-(piperidin-4-yl)pyridin-3-amine], 2.42 nM.
The result for `N[C@@H]1CCN(c2cccc(-c3n[nH]c4cnc(-c5cccnc5)cc34)n2)C1` [Example 276, (R)-1-(6-(5-(pyridin-3-yl)-1H-pyrazolo[3,4-c]pyridin-3-yl)pyridin-2-yl)pyrrolidin-3-amine] reads 0.188 nM; that for `CCn1cc(-c2cc3c(-c4cccc(N5CCNCC(CO)C5)n4)n[nH]c3cn2)cn1` (stereo not shown) [Example 512, (1-(6-(5-(1-ethyl-1H-pyrazol-4-yl)-1H-pyrazolo[3,4-c]pyridin-3-yl)pyridin-2-yl)-1,4-diazepan-6-yl)methanol], 0.04 nM.
For `NCCNC(=O)c1cccc(-c2n[nH]c3cnc(-c4cccnc4)cc23)n1` [Example 326, N-(2-aminoethyl)-6-(5-(pyridin-3-yl)-1H-pyrazolo[3,4-c]pyridin-3-yl)picolinamide] the value was 17.7 nM; for `N[C@H]1CCN(c2ccc(-c3n[nH]c4cnc(-c5cccnc5)cc34)cn2)C1` [Example 202, (S)-1-(5-(5-(pyridin-3-yl)-1H-pyrazolo[3,4-c]pyridin-3-yl)pyridin-2-yl)pyrrolidin-3-amine], 1 nM; for `CCn1cc(-c2cc3c(-c4cc(C(F)(F)F)ccn4)n[nH]c3cn2)cn1` [Example 469, 5-(1-ethyl-1H-pyrazol-4-yl)-3-(4-(trifluoromethyl)pyridin-2-yl)-1H-pyrazolo[3,4-c]pyridine], 65.6 nM.
`Cc1n[nH]c2cnc(-c3cnccc3N3CCC[C@H](N)C3)cc12` [Example 112, (S)-1-(3-(3-methyl-1H-pyrazolo[3,4-c]pyridin-5-yl)pyridin-4-yl)piperidin-3-amine] showed an inhibition constant Ki of 3500 nM.
Molecule `CCn1cc(-c2cc3c(-c4cccc(N5CCN(C)CC5)n4)n[nH]c3cn2)cn1` [Example 372, 5-(1-ethyl-1H-pyrazol-4-yl)-3-(6-(4-methylpiperazin-1-yl)pyridin-2-yl)-1H-pyrazolo[3,4-c]pyridine] displayed an inhibitory constant (Ki) of 0.268 nM.
For `c1ccc(-c2n[nH]c3cnc(-n4cncn4)cc23)cc1` [Example 142, 3-phenyl-5-(1H-1,2,4-triazol-1-yl)-1H-pyrazolo[3,4-c]pyridine] the value was 306 nM; for `CCn1cc(-c2cc3c(-c4cccc(N5CCC[C@H](N)CC5)n4)n[nH]c3cn2)cn1` [Example 481, (S)-1-(6-(5-(1-ethyl-1H-pyrazol-4-yl)-1H-pyrazolo[3,4-c]pyridin-3-yl)pyridin-2-yl)azepan-4-amine], 0.034 nM; for `Cn1cc(-c2cc3c(-c4ccc(Br)c(N5C[C@@H](N)C[C@@H](F)C5)n4)n[nH]c3cn2)cn1` [Example 456, (3S,5R)-1-(3-bromo-6-(5-(1-methyl-1H-pyrazol-4-yl)-1H-pyrazolo[3,4-c]pyridin-3-yl)pyridin-2-yl)-5-fluoropiperidin-3-amine], 0.03 nM.
Molecule `Fc1cncc(-c2cc3c(-c4cccc(N5CCNCC5)n4)n[nH]c3cn2)c1` [Example 208, 5-(5-fluoropyridin-3-yl)-3-(6-(piperazin-1-yl)pyridin-2-yl)-1H-pyrazolo[3,4-c]pyridine] returned an inhibitory constant (Ki) of 0.284 nM.
For `Fc1ccccc1-c1n[nH]c2cnc(-c3cnccc3OC3CNC3)cc12` [Example 198, 5-(4-(azetidin-3-yloxy)pyridin-3-yl)-3-(2-fluorophenyl)-1H-pyrazolo[3,4-c]pyridine] the value was 3.12 nM; for `CCn1cc(-c2cc3c(-c4cc(CO)ccn4)n[nH]c3cn2)cn1` [Example 498, (2-(5-(1-ethyl-1H-pyrazol-4-yl)-1H-pyrazolo[3,4-c]pyridin-3-yl)pyridin-4-yl)methanol], 17.2 nM.
The molecule `CCCCc1ccc(-c2n[nH]c3cnc(-c4cccnc4)cc23)nc1N1CCC[C@H](N)C1` [Example 362, (S)-1-(3-butyl-6-(5-(pyridin-3-yl)-1H-pyrazolo[3,4-c]pyridin-3-yl)pyridin-2-yl)piperidin-3-amine] gave an inhibition constant Ki of 0.079 nM.
For `CC(C)n1cc(-c2cc3c(-c4cccc(N5CCNCC5)n4)n[nH]c3cn2)cn1` [Example 389, 5-(1-isopropyl-1H-pyrazol-4-yl)-3-(6-(piperazin-1-yl)pyridin-2-yl)-1H-pyrazolo[3,4-c]pyridine] the value was 0.213 nM.
For `CCn1cc(-c2cc3c(-c4ccccn4)n[nH]c3cn2)cn1` [Example 508, 5-(1-ethyl-1H-pyrazol-4-yl)-3-(pyridin-2-yl)-1H-pyrazolo[3,4-c]pyridine] the value was 10.6 nM; for `Fc1ccccc1-c1n[nH]c2cnc(-c3cncs3)cc12` [Example 348, 5-(3-(2-fluorophenyl)-1H-pyrazolo[3,4-c]pyridin-5-yl)thiazole], 26.8 nM.
For `c1ccc(-c2n[nH]c3cnc(-n4ccnc4)cc23)cc1` [Example 146, 5-(1H-imidazol-1-yl)-3-phenyl-1H-pyrazolo[3,4-c]pyridine] the value was 26.7 nM.
On to `N#CCc1n[nH]c2cnc(-c3cn[nH]c3)cc12` [Example 145, 2-(5-(1H-pyrazol-4-yl)-1H-pyrazolo[3,4-c]pyridin-3-yl)acetonitrile], for which the inhibition constant (Ki) stood at 324 nM.
`CCn1cc(-c2cc3c(-c4cccc(N5CCNC(C(F)(F)F)CC5)n4)n[nH]c3cn2)cn1` (stereo not shown) [Example 491, 5-(1-ethyl-1H-pyrazol-4-yl)-3-(6-(5-(trifluoromethyl)-1,4-diazepan-1-yl)pyridin-2-yl)-1H-pyrazolo[3,4-c]pyridine] came in with a Ki of 0.181 nM.
`Cc1ccc(-c2n[nH]c3cnc(-c4cccnc4)cc23)nc1N1CC[C@H](O)C1` [Example 305, (S)-1-(3-methyl-6-(5-(pyridin-3-yl)-1H-pyrazolo[3,4-c]pyridin-3-yl)pyridin-2-yl)pyrrolidin-3-ol] registered an inhibitory constant (Ki) of 0.091 nM.
